Experimental data as given in patent US10421718B2, “EBNA1 inhibitors and their method of use” (priority 2013, dated 2019).

Biological target: T1, His-EBNA1 (DNA binding domain of EBNA1, amino acids 459-607) (Epstein-Barr virus, UniProt P03211)
T1 construct: made in house; host or cells: E. coli
Experiment: Inhibition of 5′-biotin-oPL4624 binding to His-EBNA1 using Alpha Screen technology
Conditions: Alpha Screen Activity (IC50, inhibition of 5′-biotin-oPL4624 binding to His-EBNA1), 15 nM His-EBNA1, 0.2 nM bt-oPL4624, 2 hr room temperature
In short: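 His-tagged EBNA1 DNA-binding domain (aa 459-607, E. coli-expressed) at 15 nM with 0.2 nM biotinylated self-complementary oligo, streptavidin donor and nickel acceptor beads, in 25 mM Tris pH 7.2, 160 mM NaCl, 1 mM MgCl2. Compound 3.2 nM-100 μM final; AlphaScreen read after 2 h at room temperature, one-site dose-response fit.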

T1 sequence (P03211 459-607): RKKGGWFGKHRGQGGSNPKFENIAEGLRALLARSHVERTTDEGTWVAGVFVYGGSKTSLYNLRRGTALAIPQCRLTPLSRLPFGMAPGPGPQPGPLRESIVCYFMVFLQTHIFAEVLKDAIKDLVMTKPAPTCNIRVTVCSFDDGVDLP

SMILES | IC50 [µM]
O=C(O)c1cccc(C#Cc2ccncc2)c1-n1cncn1 [Entry 293, 3-pyridin-4-ylethynyl-2-[1,2,4]triazol-1-yl-benzoic acid] | 10 to 100
O=C(O)c1cccc(C#Cc2ccccc2)c1-n1ccnc1 [Entry 294, 2-imidazol-1-yl-3-phenylethynyl-benzoic acid] | 10 to 100
O=C(O)c1cccc(C#Cc2ccccc2)c1-n1cccn1 [Entry 295, 3-phenylethynyl-2-pyrazol-1-yl-benzoic acid] | 100 to 1000
O=C(O)c1cccc(C#Cc2ccccc2)c1-n1cncn1 [Entry 296, 3-phenylethynyl-2-[1,2,4]triazol-1-yl-benzoic acid] | 10 to 100
O=C(O)c1cccc(C#Cc2ccccc2)c1-n1cnc2ccccc21 [Entry 297, 2-benzoimidazol-1-yl-3-phenylethynyl-benzoic acid] | 10 to 100
O=C(O)c1cccc(C#Cc2ccccc2)c1-n1ncc2ccccc21 [Entry 298, 2-indazol-1-yl-3-phenylethynyl-benzoic acid] | 10 to 100
O=C(O)c1cccc(C#Cc2ccccc2)c1-n1ccc2ccccc21 [Entry 299, 2-indol-1-yl-3-phenylethynyl-benzoic acid] | 1 to 10
O=C(O)c1cccc(C#Cc2ccncc2)c1-n1cnc2ccccc21 [Entry 300, 2-benzoimidazol-1-yl-3-pyridin-4-ylethynyl-benzoic acid] | 10 to 100
